This note sets out measurements from US9302993B2, “8-hydroxy quinoline derivatives” (PRANA BIOTECHNOLOGY LIMITED, priority 2002, dated 2016).

For series [1], the target named is T1, hydrogen peroxide generation by Aβ in the presence of copper (Homo sapiens, UniProt P05067).
T1 construct: The reaction solutions contained Aβ 1-42 at concentrations in the range of 50 nM to 1 μM
Kind of series: Fluorometric H2O2 assay (Assay 1). The settings on record: Aβ 1-42 with Cu-Gly, DCF/HRP, 37 C 60 min; several values in one cell = repeat determinations; read-out: Peroxide IC50. Format: biochemical. In outline: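 Aβ1-42 (50 nM–1 μM) with Cu-glycine (2 Cu-Gly : 1 Aβ) and a reductant (dopamine 5 μM or ascorbic acid) was incubated 60 min at 37 °C in PBS pH 7.4 with test compound. H2O2 was detected with 100 μM deacetylated DCF and 0.1 μM HRP by fluorescence against H2O2 standards.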

Series [2] concerns transgenic Huntington's mice (R6/2). Kind of series: PBT1033 effects in transgenic Huntington's mice (Example 22). Format: in vivo, mouse. An excerpt: This example describes an in vivo study of PBT1033 in transgenic Huntington's mice (R6/2) using the procedure of Nyuyen, Harby and Massa, 2005. During this study, 44 samples were collected for behavioral tests, including Rotarod performance, clasping tests, body weight and lifespan observations, and 24 samples were utilized for pathology assessments, including brain sectioning and staining for measuring lateral ventricle size, brain weight, whole brain western blotting for mutant Htt aggregate accumulation, and immunocytochemistry for Htt aggregates.
GROUP A: 10+6 (pathology) R6/2 MICE, treated daily with PBT1033
GROUP B: 10+6 (pathology) R6/2 MICE, treated daily with SSV solution
GROUP C: 12+6 (pathology) wild type (WT) mice, treated daily with PBT1033
GROUP D: 12+6 (pathology) WT mice, treated daily with SSV solution
3. PBT1033 in SSV solution was orally administered to mice at 0.6 mg/0.1 ml ([…])/20 g. The PBT1033 solution was taken up into a 1-cc syringe attached to a feeding needle and the drug was delivered by oral gavage.
4. Rotarod was assessed as described by Hockly et al., the contents of which are incorporated by reference, with the modification that the SDI Rota—Rod (San Diego Instruments, San Diego), was set to linearly increase in speed to 40 rpm in 4-min ramp time. Performance is at 4th, 8th, 10th, and 12th week, with three days (one for training) per period and three times per day.
5. Body Weight: once per week, start at age 3 weeks.
6. Clasping testing and Behavioral observation: once per week from 5th week and daily during the drug treating.
7. Lifespan observation: Group A and B were treated until they died.
8. Brain lateral ventricle size: mouse brain perfusion, sectioning and staining at age 10 weeks. Mice brains were perfused and fixed with 4% PFA and stained with H&E.
9. Whole Brain Western Blotting: whole mouse brain was homogenized in buffer (10 mM Tris HCl (pH 7.4) 11 mM EDTA Na2/1% Triton X100/complete protease inhibitor mixture and then centrifuged at 7000×g for 90 s. The supernatant was boiled in SDS sample buffer for 5 mm at 100° C.
40 micrograms of total protein was run on a 10% SDS gel with a 4% stacking gel. Antibody: anti-GAPDH (1:5000), EM48 anti-Htt antibody (1:1000)
10. Brain weight: brain weighed before freezing at −80° C.
11. Immunohistochemistry was performed in accordance with the procedure in Assay 15, hereinabove.

For the next series, the system named is healthy volunteers. Kind of series: Clinical study of 1033, single and multiple oral doses (Example 23). Type of series: in vivo. The method, then: 1033 was administered to healthy volunteers in a 2-part study comprising single dose administration (Stage A) and multidose administration (Stage B).
The objectives of the following trials were to determine the safety, tolerability and pharmacokinetics of single and multiple oral doses of 1033 in healthy volunteers. Double-blind studies were conducted. The protocol included safety measures designed to capture the potential human adverse effects. A total of 65 healthy subjects have been exposed to doses of 1033 (41 single dose, 24 multiple dose).
In Stage A, fifty five (55) healthy male subjects aged 18-50 years were randomised (3:1) to receive a single oral dose of either placebo or 1033 at one of 7 dose levels (25, 50, 100, 200, 300, 500 or 800 mg).
In Stage B, thirty two (32) healthy male and female subjects aged 45-75 years (eight subjects per dose level) were randomised (3:1) to receive a daily oral dose over 7 consecutive days of either placebo or 1033 at one of 4 dose levels (200, 400, 600 or 800 mg). Each dose level comprised of 4 males and 4 females; the randomisation schedule ensuring that 1 subject/sex received placebo and 3 subjects/sex received 1033.

The nature of series [3]: Toxicity at 30 mg/kg (In vivo Efficacy and Safety Profile).
Series [4] is described as follows: Mice plasma concentration. Format: in vivo.
The nature of a further series: B:P Ratio. Format: in vivo.

T1 sequence (P05067 672-713 limits assumed): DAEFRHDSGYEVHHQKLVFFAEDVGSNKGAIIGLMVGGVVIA

For the molecule `CN(C)Cc1ccc2c(Cl)cc(Cl)c(O)c2n1.Cl` [compound 1033, 5,7-Dichloro-2-dimethylaminomethyl-quinolin-8-ol hydrochloride], the IC50 in series [1] was 380 nM. The life span result in series [2] (Group A (PBT1033) compared with Group B (SSV)) is “survived significantly longer”. In series [2] (Group B (SSV) compared with Group A (PBT1033)), the “clasping latency and duration” value is “significantly greater”. Also, the body weight result in series [2] (Group B (SSV) vs A, C and D groups) is reported as “significantly decreased”. Further, the brain weight in series [2] (R6/2 mice, Group A) stood at 0.373±0.0228. The rotarod performance time in series [2] (R6/2 mice, Group A, 10th week) was 28 ± 4 s; in series [2] (R6/2 mice, Group A, 12 week), 26 ± 4 s. In series [2] (R6/2 mice, Group A, age 10 weeks), the Lateral ventricle area is 0.36±0.086 mm^2. In addition, in series [2] (whole brain, HDexon1 mice), the “mutant Huntingtin (Htt) protein aggregates, Western analysis” value was “not in treated animals”. Further, the “tolerability, single oral dose” value with healthy volunteers (Stage A, healthy male volunteers aged 18 to 50 years, 25-800 mg) is given as “well tolerated”. For the same molecule, the “clinical laboratory evaluations and physical assessments” value with healthy volunteers (Stage A, single oral dose) is recorded as “No clinically significant or relevant changes”. The “incidence of adverse events” value with healthy volunteers (Stage A, single oral dose) came out at 43.9%. The “tolerability, multiple dose” value in the series with healthy volunteers (Stage B, healthy elderly subjects, daily oral dose over 7 days, 200-800 mg) is recorded as “generally well tolerated”. For the same molecule, the “Toxicity at 30 mg/kg” value in series [3] is “None”. Moreover, the Mice plasma concentration result in series [4] is “Up to 500 ng/ml”. The “B:P Ratio” value is 12.85 in “B:P Ratio” (at 5 min) and 9.45 in the series “B:P Ratio” (at 60 min).
In the case of `Cn1cnc(CCNC(=O)c2ccc3c(Cl)cc(Cl)c(O)c3n2)c1` [compound 1050, 5,7-dichloro-8-hydroxyquinoline-2-carboxylic acid [2-(1-methyl-1H-imidazol-4-yl)-ethyl]-amide], in series [1], the IC50 turned out to be 280 nM.
